Assay results published in patent US10191062B2, “Model gut system” (priority 2013, dated 2019).

Assays:
[1] = fatty acid released from the triglyceride substrate; cited from earlier work
lipase = test: Glyceryl trioctanoate digestion in the model gut system (MGS), glycerol release; type: biochemical, porcine; settings: 2 mmol glyceryl trioctanoate; Orlistat at 2.5, 5 and 10 mg vs control digestion; FIG. 6
Description: Fresh porcine bile was extracted from fresh procine gall bladders (collected on ice from abattoir). Approximately 50 gall bladders were collected per batch. The collected bile was pooled, mixed and frozen down in 25 ml aliquots for storage, as 25 ml is required for each replicate.
Glyceryl trioctanoate was used as the tryglyceride substrate for all assays of fat digestion reported herein. In these experiments, 2 mmol (0.94136 g) of glyceryl trioctanoate was added to the synthetic saliva preparations at T[−10] wherein T[−10] means 10 minutes prior to addition of the synthetic saliva to the test system.
At T[−10], salivary preparations containing substrate/sample/controls were prepared as indicated hereinbefore and incubated for 10 minutes on rollers. […]
In all the experiments, data samples of 0.5 ml were taken at T0, T5, T10, T15, T30, T45, T60, T60^B, T65, T70, T75, T90, T105, T120, T150 and T180, wherein (T60^B) represents a second sample at T60 which was taken after the addition of fresh porcine bile. […] The test samples were stored at 4° C. overnight to allow for precipitation and then centrifuged at 10,000 r.p.m. for 10 minutes, after which the supernatant was analysed. […]
Triglyceride digestion can be measured using ZenBio Glycerol Reagent A to quantify the release of glycerol. A 5 μl of sample was incubated with 80 μl Reagent A for 30 minutes and colour development was measured at 550 nm. […]

CCCC(=O)O [Butyric Acid]
pKa [1]: 4.84

CCCCCCCC/C=C\CCCCCCCC(=O)O [Oleic Acid]
pKa [1]: 9.95

CCCCCCCCCCC[C@@H](C[C@@H]1OC(=O)[C@H]1CCCCCC)OC(=O)[C@H](CC(C)C)NC=O [Orlistat]
total glycerol recovered from the model gut system after TCA precipitation (lipase): varies in accordance with the level of Orlistat

CCCCCCCCCCCCCCCC(=O)O [Palmitic Acid]
pKa [1]: 9.7

CCCCCCCCCCCCCCCCCC(=O)O [Stearic Acid]
pKa [1]: 10.15
